Source: publication PMC11729640, “Synthesis and evaluation of 6-arylaminobenzamides as positron emission tomography imaging ligands for the sphingosine-1-phosphate-5 receptor” (RSC Medicinal Chemistry, 2025)

Legend:
[1] = target: T1, S1P5 (Homo sapiens, UniProt Q9H228); assay: [35S]GTPγS binding assay, agonist activity at S1P5; format: biochemical; conditions: for Efficacy (%): relative efficacy versus S1P against S1P5, single high concentration, single 96-well plate; for EC50: n = 3, errors in parentheses derived from 95% confidence intervals, nine concentrations 100 fM to 10 μM
T1 construct: purchased Eurofins
T1 sequence (Q9H228 whole entry): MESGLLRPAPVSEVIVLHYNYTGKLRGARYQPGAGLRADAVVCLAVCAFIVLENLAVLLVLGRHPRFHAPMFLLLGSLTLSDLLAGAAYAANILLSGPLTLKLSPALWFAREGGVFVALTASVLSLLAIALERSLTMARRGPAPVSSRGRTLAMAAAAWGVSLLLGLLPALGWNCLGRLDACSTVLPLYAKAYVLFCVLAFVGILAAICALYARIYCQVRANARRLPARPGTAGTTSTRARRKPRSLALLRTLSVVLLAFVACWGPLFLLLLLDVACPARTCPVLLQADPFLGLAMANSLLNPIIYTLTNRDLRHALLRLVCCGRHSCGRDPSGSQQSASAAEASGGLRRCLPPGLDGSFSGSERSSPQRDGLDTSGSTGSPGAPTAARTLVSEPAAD
Protocol: The membrane preparation was diluted to […] with assay buffer and mixed 1 : 1 (v/v) with a 0.4 mg mL^-1 solution of saponin in assay buffer. […] MerckTM Multiscreen® HTS 96 well filter plates were pre-wet with 70% aqueous EtOH (50 μL per well) for 30 seconds and then washed twice with assay buffer (200 μL per well). […]

[2] = target: T2, S1P3 (Homo sapiens, UniProt Q99500); assay: [35S]GTPγS binding assay, agonist activity at S1P3; format: biochemical; conditions: n = 3, errors in parentheses derived from 95% confidence intervals
T2 construct: purchased Eurofins
T2 sequence (Q99500 whole entry): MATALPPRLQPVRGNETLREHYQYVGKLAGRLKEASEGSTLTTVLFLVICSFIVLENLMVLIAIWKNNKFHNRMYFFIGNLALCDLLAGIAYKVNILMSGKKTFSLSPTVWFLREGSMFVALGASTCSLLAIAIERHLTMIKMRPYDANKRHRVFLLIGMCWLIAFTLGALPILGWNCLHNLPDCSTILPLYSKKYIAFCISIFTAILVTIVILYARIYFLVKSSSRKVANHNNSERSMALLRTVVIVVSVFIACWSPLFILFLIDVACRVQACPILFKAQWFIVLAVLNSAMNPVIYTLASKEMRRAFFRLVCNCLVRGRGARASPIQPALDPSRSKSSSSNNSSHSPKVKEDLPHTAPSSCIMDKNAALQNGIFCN
Protocol: (§1) A GTPγS assay was then conducted to evaluate receptor agonist activity of each compound at nine concentrations from 100 fM to 10 μM (n = 3).[24,25] Initially, all compounds were tested for agonist activity with S1P5 and relative efficacy versus S1P (Table 1).[26] […] Previous work by the Novartis group described the importance of hydrogen bonding between the carboxamide and 2-substituent, to maintain an in-plane conformation of the amide that was critical for agonist activity against S1P receptors.[16] […] This was more pronounced for compounds with both a bulky alkoxy group and a 3-substituent, with 6-arylaminobenzamide 7h found to have the weakest activity. […] Based on the binding studies and the physicochemical results, 6-arylaminobenzamide 7g, named as TEFM78 was chosen as the lead compound.
(§2) The assay buffer was prepared from HEPES (20 mM), NaCl (100 mM), MgCl2 (10 mM) and fatty acid-free BSA (0.1%) at pH 7.4. ChemiScreen™ S1P1–3,5 lysophospholipid receptor membrane preparations were obtained from Eurofins. The membrane preparation was diluted to […] with assay buffer and mixed 1 : 1 (v/v) with a 0.4 mg mL^−1 solution of saponin in assay buffer. Nine concentrations of the compounds to be tested were prepared (10 μM, 1 μM, 100 nM, 10 nM, 1 nM, 100 pM, 10 pM, 1 pM, 100 fM). Merck™ Multiscreen® HTS 96 well filter plates were pre-wet with 70% aqueous EtOH (50 μL per well) for 30 seconds and then washed twice with assay buffer (200 μL per well). To each well was added membrane preparation (25 μL), GDP in assay buffer (25 μL, 2 μM), [^35S]GTPγS in assay buffer (25 μL, 1.2 nM) and test compound (25 μL). For total binding, S1P solution in assay buffer (25 μL, 10 μM) was added and for basal, assay buffer (25 μL) was added. The assay plate was incubated at 30 °C for 0.5 h before the addition of cold assay buffer (100 μL per well) to stop the reaction. The plate was filtered using a Millipore vacuum manifold, with a pressure between 600–800 mbar and then dried at 50 °C for 1–2 h. Betaplate Scint scintillation cocktail (30 μL per well) was added and the disintegrations per minute were determined using a Wallac 1450 Microbeta Trilux liquid scintillation and luminescence counter. EC50 values were derived from non-linear regression analysis using GraphPad Prism Version 6 (GraphPad Software Inc).

[3] = target: T3, S1P1 (Homo sapiens, UniProt P21453); assay: [35S]GTPγS binding assay, agonist activity at S1P1; format: biochemical; conditions: n = 3, errors in parentheses derived from 95% confidence intervals
T3 construct: purchased Eurofins
T3 sequence (P21453 whole entry): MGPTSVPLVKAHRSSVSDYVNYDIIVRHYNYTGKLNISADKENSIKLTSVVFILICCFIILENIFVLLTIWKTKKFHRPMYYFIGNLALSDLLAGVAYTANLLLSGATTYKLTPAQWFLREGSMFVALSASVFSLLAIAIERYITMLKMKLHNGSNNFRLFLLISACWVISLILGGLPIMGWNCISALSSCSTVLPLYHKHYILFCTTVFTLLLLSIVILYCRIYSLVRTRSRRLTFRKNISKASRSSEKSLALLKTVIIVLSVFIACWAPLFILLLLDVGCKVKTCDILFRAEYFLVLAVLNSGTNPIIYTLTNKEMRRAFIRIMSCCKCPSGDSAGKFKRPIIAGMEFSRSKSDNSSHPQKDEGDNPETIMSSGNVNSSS
Protocol: as §1, §2

[4] = target: human serum albumin (HSA) (Homo sapiens, UniProt P02768); assay: Plasma protein binding by human serum albumin (HSA) coated column; format: in vitro ADME; conditions: read-out: %PPB (percentage of plasma protein binding)
Chain of human serum albumin (HSA) (P02768 25-609): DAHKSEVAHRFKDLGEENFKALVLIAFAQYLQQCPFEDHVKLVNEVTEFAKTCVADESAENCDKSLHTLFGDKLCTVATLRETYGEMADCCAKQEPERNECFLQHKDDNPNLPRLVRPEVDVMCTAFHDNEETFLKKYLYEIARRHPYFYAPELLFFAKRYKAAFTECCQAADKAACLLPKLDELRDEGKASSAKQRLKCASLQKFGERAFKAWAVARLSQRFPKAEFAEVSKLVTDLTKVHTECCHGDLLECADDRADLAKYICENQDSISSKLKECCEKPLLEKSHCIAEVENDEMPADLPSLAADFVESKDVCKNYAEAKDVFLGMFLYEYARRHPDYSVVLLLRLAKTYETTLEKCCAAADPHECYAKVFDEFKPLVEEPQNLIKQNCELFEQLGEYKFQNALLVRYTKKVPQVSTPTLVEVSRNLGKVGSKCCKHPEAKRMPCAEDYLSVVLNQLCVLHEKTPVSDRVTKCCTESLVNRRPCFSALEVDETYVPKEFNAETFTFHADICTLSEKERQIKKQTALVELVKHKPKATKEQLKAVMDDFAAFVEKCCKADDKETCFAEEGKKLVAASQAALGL
Protocol: The physicochemical properties of both sets of compounds was initially performed to assess their potential as brain imaging agents. The calculated partition coefficient (log P), the permeability (Pm), the membrane partition coefficient (Km) and the percentage of plasma protein binding (%PPB) were determined for each compound using established methods (see ESI, ^† Table S1).[22,23] […] The permeability and membrane partition coefficient for the majority of compounds were well within the ideal limits for these parameters (Pm < 0.5; Km < 250), which are based on known CNS imaging agents.[23]
1. Physiochemical Propert ies of 6-arylaminobenz amides 7a–7h and 8a–8e.1
Compound log Pa Pmb Kmb %PPBc
aCalcul ated using Ch emDraw. bDeterm ined using i mmobil ised art ific ial membr ane (IAM) column .
cDetermin ed using human seru m albu min (HSA) coa ted colu mn.

[5] = target: T4, S1P2 (Homo sapiens, UniProt O95136); assay: [35S]GTPγS binding assay, agonist activity at S1P2; format: biochemical; conditions: n = 3, errors in parentheses derived from 95% confidence intervals
T4 construct: purchased Eurofins
T4 sequence (O95136 whole entry): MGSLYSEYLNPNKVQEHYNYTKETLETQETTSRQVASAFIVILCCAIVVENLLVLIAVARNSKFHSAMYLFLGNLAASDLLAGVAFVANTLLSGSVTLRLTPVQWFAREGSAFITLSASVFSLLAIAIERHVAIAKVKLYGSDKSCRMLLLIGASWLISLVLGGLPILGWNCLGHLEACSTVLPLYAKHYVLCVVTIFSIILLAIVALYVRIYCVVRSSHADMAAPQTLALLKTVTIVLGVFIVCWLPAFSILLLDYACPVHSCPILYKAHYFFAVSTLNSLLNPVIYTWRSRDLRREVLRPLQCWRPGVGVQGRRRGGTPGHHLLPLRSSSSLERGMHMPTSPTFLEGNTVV
Protocol: as §1, §2

Structure (SMILES)	Efficacy (%) [1]	EC50 [2]	EC50 [1]	EC50 [3]	fraction unbound [4]	EC50 [5]
CCCCCCCCCCCCC/C=C/[C@@H](O)[C@@H](N)COP(=O)(O)O [S1P (1), sphingosine-1-phosphate]	100%	42.6 nM				
COc1c(C)ccc(Nc2c(C)cc(F)cc2C)c1C(N)=O [Compound 7g, 6-[(4′-Fluoro-2′,6′-dimethylphenyl)amino]-2-methoxy-3-methylbenzamide]	183%	2030 nM	22.3 nM	104 nM	0.01	> 10000 nM
Cc1cc(F)cc(C)c1Nc1cccc(OCCC(C)C)c1C(N)=O [Compound 7e, 6-[(4′-Fluoro-2′,6′-dimethylphenyl)amino]-2-(3′′-methyl-n-butoxy)benzamide]	102%		49 nM			
COc1cccc(Nc2c(C)cc(F)cc2C)c1C(N)=O [Compound 7b, 6-[(4′-Fluoro-2′,6′-dimethylphenyl)amino]-2-methoxybenzamide]	108%	> 10000 nM	39.8 nM	> 10000 nM	0.01	> 10000 nM
Cc1cc(F)cc(C)c1Nc1cccc(OCC(C)C)c1C(N)=O [Compound 7c, 6-[(4′-Fluoro-2′,6′-dimethylphenyl)amino]-2-isobutoxybenzamide]	137%		180 nM			
C=CCOc1cccc(Nc2c(C)cc(F)cc2C)c1C(N)=O [Compound 7f, 2-(Allyloxy)-6-[(4′-fluoro-2′,6′-dimethylphenyl)amino]benzamide]	164%	27.6 nM	6.66 nM	25.6 nM		> 10000 nM
CCCCOc1cccc(Nc2c(C)cc(F)cc2C)c1C(N)=O [Compound 7d, 2-n-Butoxy-6-[(4′-fluoro-2′,6′-dimethylphenyl)amino]benzamide]	140%		234 nM			
Cc1cc(F)cc(C)c1Nc1cccc(OC(C)C)c1C(N)=O [Compound 7a, 6-[(4′-Fluoro-2′,6′-dimethylphenyl)amino]-2-isopropoxybenzamide]	105%		419 nM		0.01	
Cc1cc(F)cc(C)c1Nc1ccc(C)c(OCC(C)C)c1C(N)=O [Compound 7h, 6-[(4′-Fluoro-2′,6′-dimethylphenyl)amino]-2-isobutoxy-3-methylbenzamide]	154%		2240 nM			

Continued, values first:

Efficacy (%) [1]	EC50 [2]	EC50 [1]	EC50 [3]	fraction unbound [4]	EC50 [5]	Structure (SMILES)
136%		954 nM				COc1c(-c2ccccc2F)ccc(Nc2c(C)cc(C)cc2C)c1C(N)=O [Compound 8b, 3-(2′′-Fluorophenyl)-6-(mesitylamino)-2-methoxybenzamide]
175%	172 nM	23.4 nM	0.336 nM	0.01	> 10000 nM	COc1c(-c2cccnc2F)ccc(Nc2c(C)cc(C)cc2C)c1C(N)=O [Compound 8e, 3-(2′′-Fluoropyridin-3′′-yl)-6-(mesitylamino)-2-methoxybenzamide]
120%	> 10000 nM	29.8 nM	76 nM		> 10000 nM	COc1ccc(-c2ccc(Nc3c(C)cc(C)cc3C)c(C(N)=O)c2OC)c(F)c1 [Compound 8c, 3-(2′′-Fluoro-4′′-methoxyphenyl)-6-(mesitylamino)-2-methoxybenzamide]
142%		612 nM				COc1ccc(F)c(-c2ccc(Nc3c(C)cc(C)cc3C)c(C(N)=O)c2OC)c1 [Compound 8d, 3-(2′′-Fluoro-5′′-methoxyphenyl)-6-(mesitylamino)-2-methoxybenzamide]
129%		72.3 nM				COc1c(-c2ccc(F)cc2)ccc(Nc2c(C)cc(C)cc2C)c1C(N)=O [Compound 8a, 3-(4′′-Fluorophenyl)-6-(mesitylamino)-2-methoxybenzamide]
